This note sets out measurements from US11839613B2, “Pyrimidine derivatives as PGE2 receptor modulators” (IDORSIA PHARMACEUTICALS LTD, priority 2017, dated 2023).

One test concerns the target PTGER2 (EP2) (Homo sapiens (Human), UniProt P43116). The test can be described thus: hEP2 b-arrestin assay (PathHunter HEK 293 PTGER2 b-arrestin cells). Type of test: cell-based. To be noted: antagonistic activity, beta-arrestin assay; read-out: hEP2 b-arr IC50. The procedure:
Plate is pre-incubated 15 minutes at 37° C. Then five microliters of PGE2 (final conc. 5 μM) are transferred into the assay plate. Plate is incubated 120 minutes at 37° C.
(each concentration is measured in duplicate)

In the next test the target is EP2 (Homo sapiens (Human), UniProt P43116). The test can be described thus: hEP2 cAMP assay (SF295 glioblastoma cells, HTRF cAMP). The conditions noted are these: antagonistic activity. Format: cell-based. The method, boiled down: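 PGE2-driven cAMP accumulation was measured by HTRF in SF295 cells, which express endogenous EP2 only. Cells in assay buffer with 2 mM IBMX were pre-incubated 45 min at RT, then incubated 30 min at RT. Detection used competition between cellular cAMP and d2-cAMP for a cryptate anti-cAMP antibody.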
Chain of EP2 (P43116 whole entry): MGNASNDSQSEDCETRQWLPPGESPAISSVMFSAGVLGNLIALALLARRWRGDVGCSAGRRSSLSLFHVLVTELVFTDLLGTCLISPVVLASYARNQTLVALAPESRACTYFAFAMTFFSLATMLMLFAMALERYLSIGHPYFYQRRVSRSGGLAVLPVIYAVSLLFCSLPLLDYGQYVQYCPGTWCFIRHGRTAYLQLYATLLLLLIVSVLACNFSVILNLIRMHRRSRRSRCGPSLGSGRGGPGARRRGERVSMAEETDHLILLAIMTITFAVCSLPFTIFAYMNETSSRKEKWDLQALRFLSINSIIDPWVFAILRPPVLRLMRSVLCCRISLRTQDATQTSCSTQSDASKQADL
For orientation: Changes in cAMP serve as a functional read-out for many G protein-coupled receptors.

In the next test the target is EP4 (Homo sapiens (Human), UniProt P35408). Nature of the test: hEP4 cAMP assay (BT549 breast cancer cells, HTRF cAMP). Format: cell-based. To be noted: antagonistic activity, PGE2 6 nM. In short, it runs like this: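 cAMP accumulation quantified by HTRF competition between cellular cAMP and d2-labeled cAMP for cryptate anti-cAMP antibody. Cells: endogenously EP4-expressing BT549, buffer with 2 mM IBMX; 45 min RT compound preincubation preceded 30 min RT challenge with PGE2 at 6 nM final.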
Chain of EP4 (P35408 whole entry): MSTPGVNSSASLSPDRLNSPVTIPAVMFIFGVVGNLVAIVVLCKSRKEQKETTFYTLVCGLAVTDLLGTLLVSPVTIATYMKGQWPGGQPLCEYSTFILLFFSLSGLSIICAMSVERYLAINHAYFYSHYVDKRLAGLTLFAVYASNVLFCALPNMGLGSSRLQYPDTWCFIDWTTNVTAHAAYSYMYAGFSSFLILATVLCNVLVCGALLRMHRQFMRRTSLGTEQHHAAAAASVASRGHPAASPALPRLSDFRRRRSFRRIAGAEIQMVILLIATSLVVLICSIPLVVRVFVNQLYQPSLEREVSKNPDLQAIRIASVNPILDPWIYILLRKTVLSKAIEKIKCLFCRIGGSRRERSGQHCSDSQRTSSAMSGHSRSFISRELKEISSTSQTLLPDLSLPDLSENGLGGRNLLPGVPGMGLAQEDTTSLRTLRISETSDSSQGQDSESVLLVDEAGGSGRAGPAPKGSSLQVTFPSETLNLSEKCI

A further test has as its target PTGER4 (EP4) (Homo sapiens (Human), UniProt P35408). Nature of the test: cell-based.

Chain of PTGER2 (EP2) (P43116 whole entry): as the sequence (P43116 whole entry) above
Chain of PTGER4 (EP4) (P35408 whole entry): as the sequence (P35408 whole entry) above

Broadly, the IC50 is the concentration needed to halve the response being measured. In the case of `CCOc1cc(-c2cc(NCCc3ccc4scc(C)c4c3)ncn2)ccc1OCC(=O)O` [Example 466, (2-Ethoxy-4-{6-[2-(3-methyl-benzo[b]thiophen-5-yl)-ethylamino]-pyrimidin-4-yl}-phenoxy)-acetic acid], the 50% inhibitory concentration (IC50) on PTGER2 (EP2) was 206 nM; on EP2 it was 190 nM; against EP4 (BT549 cells) it was 1210 nM; on PTGER4 (EP4), 171 nM.

In the case of `Cc1c(CCNc2cc(-c3cc4c(C(=O)O)cccc4[nH]3)ncn2)ccc2ccccc12` [Ex 127, 2-{6-[2-(1-Methyl-naphthalen-2-yl)-ethylamino]-pyrimidin-4-yl}-1H-indole-4-carboxylic acid], the IC50 was 181 nM at PTGER2 (EP2), 101 nM against EP2, 103 nM at EP4 and 109 nM against PTGER4 (EP4).

For the molecule `COc1cc2c(cc1CCNc1cc(-c3ccc(C(=O)O)c(SC)c3)ncn1)OCCO2` [Ex 116, 4-{6-[2-(7-Methoxy-2,3-dihydro-benzo[1,4]dioxin-6-yl)-ethylamino]-pyrimidin-4-yl}-2-methylsulfanyl-benzoic acid], the half-maximal inhibitory concentration (IC50) at PTGER2 (EP2) came out at 76 nM; against EP2 it was 23 nM; against EP4 it was 86 nM; on PTGER4 (EP4), 135 nM.

As for `O=C(O)c1cc2cc(-c3cc(NCCc4ccc5sccc5c4)ncn3)ccc2o1` [Ex 38, 5-[6-(2-Benzo[b]thiophen-5-yl-ethylamino)-pyrimidin-4-yl]-benzofuran-2-carboxylic acid], the IC50 at PTGER2 (EP2) came to 226 nM; against EP2 it was 210 nM; on EP4, 28 nM; at PTGER4 (EP4), 123 nM.

Regarding `Cc1c(CCNc2cc(-c3ccc(C(=O)O)c(OC4CCC4)c3)ncn2)ccc2ccccc12` [Ex 168], the IC50 at PTGER2 (EP2) amounted to 151 nM; against EP2, 214 nM; against EP4, 168 nM; on PTGER4 (EP4), 128 nM.

On to `CCOc1cc(-c2cc(NCCc3cc(Cl)c4sccc4c3)ncn2)sc1C(=O)O` [Example 359, 5-{6-[2-(7-Chloro-benzo[b]thiophen-5-yl)-ethylamino]-pyrimidin-4-yl}-3-ethoxy-thiophene-2-carboxylic acid], for which the 50% inhibitory concentration (IC50) was found to be 40 nM on PTGER2 (EP2), 61 nM on EP2, 2 nM against EP4 and 9 nM at PTGER4 (EP4).

For `CCCc1cc(-c2cc(NCCc3ccc4ccccc4c3C)ncn2)cc(F)c1C(=O)O` [Ex 74, 2-Fluoro-4-{6-[2-(1-methyl-naphthalen-2-yl)-ethylamino]-pyrimidin-4-yl}-6-propyl-benzoic acid], the IC50 amounted to 450 nM at PTGER2 (EP2), 151 nM on EP2, 40 nM against EP4 and 257 nM at PTGER4 (EP4).

For the molecule `CCOc1cc(-c2cc(NCCc3cc4ccccc4cc3OC)ncn2)sc1C(=O)O` [Ex 9, 3-Ethoxy-5-{6-[2-(3-methoxy-naphthalen-2-yl)-ethylamino]-pyrimidin-4-yl}-thiophene-2-carboxylic acid], the IC50 on PTGER2 (EP2) was 59 nM; against EP2, 67 nM; against EP4, 6 nM; against PTGER4 (EP4) it was 6 nM.

With `CCOc1cc(-c2cc(NCCc3cc4c(cc3C)OCCO4)ncn2)sc1C(=O)O` [Ex 30, 3-Ethoxy-5-{6-[2-(7-methyl-2,3-dihydro-benzo[1,4]dioxin-6-yl)-ethylamino]-pyrimidin-4-yl}-thiophene-2-carboxylic acid], the IC50 on PTGER2 (EP2) amounted to 29 nM; against EP2, 14 nM; at EP4, 17 nM; against PTGER4 (EP4), 51 nM.

Consider `CCOc1cc(-c2cc(NCCc3cc(F)c4sccc4c3)ncn2)ccc1-c1nnn[nH]1` [Example 452, {6-[3-Ethoxy-4-(1H-tetrazol-5-yl)-phenyl]-pyrimidin-4-yl}-[2-(7-fluoro-benzo[b]thiophen-5-yl)-ethyl]-amine], for which the IC50 on PTGER2 (EP2) amounted to 103 nM; against EP2 it was 371 nM; at EP4 (BT549 cells) it was 18 nM; against PTGER4 (EP4) it was 21 nM.

For the molecule `CCCOc1cc(-c2cc(NCCc3ccc4ccccc4c3C)ncn2)ccc1C(=O)O` [Ex 183, 4-{6-[2-(1-Methyl-naphthalen-2-yl)-ethylamino]-pyrimidin-4-yl}-2-propoxy-benzoic acid], the IC50 on PTGER2 (EP2) was 115 nM; against EP2, 67 nM; against EP4, 178 nM; against PTGER4 (EP4), 223 nM.

In the case of `CCOc1cc(-c2cc(NCCc3cc4ccccc4cc3C)ncn2)sc1C(=O)O` [Ex 40, 3-Ethoxy-5-{6-[2-(3-methyl-naphthalen-2-yl)-ethylamino]-pyrimidin-4-yl}-thiophene-2-carboxylic acid], the IC50 on PTGER2 (EP2) is 126 nM; on EP2, 228 nM; on EP4, 20 nM; on PTGER4 (EP4), 25 nM.

In the case of `COc1cc2ccoc2cc1CCNc1cc(-c2ccc(C(=O)O)c(OC3CCC3)c2)ncn1` [Ex 124, 2-Cyclobutoxy-4-{6-[2-(5-methoxy-benzofuran-6-yl)-ethylamino]-pyrimidin-4-yl}-benzoic acid], the IC50 on PTGER2 (EP2) worked out at 113 nM; against EP2, 95 nM; against EP4, 99 nM; at PTGER4 (EP4) it was 215 nM.

Regarding `CCOc1cc(-c2cc(NCCc3cc(F)c4sccc4c3)ncn2)ccc1-c1noc(=O)[nH]1` [Example 451, 3-(2-Ethoxy-4-{6-[2-(7-fluoro-benzo[b]thiophen-5-yl)-ethylamino]-pyrimidin-4-yl}-phenyl)-[1,2,4]oxadiazol-5(4H)-one], the half-inhibitory concentration (IC50) at PTGER2 (EP2) worked out at 71 nM; against EP2, 660 nM; on EP4 (BT549 cells) it was 16 nM; against PTGER4 (EP4) it was 21 nM.

Take `CCc1nc(-c2cc(NCCc3ccc4ccccc4c3C)ncn2)sc1-c1noc(=O)[nH]1` [Example 353, 3-(4-Ethyl-2-{6-[2-(1-methyl-naphthalen-2-yl)-ethylamino]-pyrimidin-4-yl}-thiazol-5-yl)-[1,2,4]oxadiazol-5(4H)-one]: the IC50 was found to be 237 nM at PTGER2 (EP2), 115 nM against EP2, 109 nM at EP4 and 9 nM against PTGER4 (EP4).

Take `CSc1cc(-c2cc(NCCc3ccc4occc4c3)ncn2)ccc1C(=O)O` [Ex 248, 4-[6-(2-Benzofuran-5-yl-ethylamino)-pyrimidin-4-yl]-2-methylsulfanyl-benzoic acid]: the IC50 on PTGER2 (EP2) came to 132 nM; against EP2, 50 nM; on EP4, 366 nM; against PTGER4 (EP4) it was 270 nM.

With `CCOc1cc(-c2cc(NCCc3cc4ccoc4cc3OC)ncn2)ccc1C(=O)O` [Ex 151, 2-Ethoxy-4-{6-[2-(6-methoxy-benzofuran-5-yl)-ethylamino]-pyrimidin-4-yl}-benzoic acid], the 50% inhibitory concentration (IC50) came out at 32 nM at PTGER2 (EP2), 35 nM against EP2, 145 nM at EP4 and 618 nM at PTGER4 (EP4).

On to `Cc1c(CCNc2cc(-c3ccc(C(=O)O)c(OC(F)F)c3)ncn2)ccc2ccccc12` [Ex 83, 2-Difluoromethoxy-4-{6-[2-(1-methyl-naphthalen-2-yl)-ethylamino]-pyrimidin-4-yl}-benzoic acid], for which the concentration for half-maximal inhibition (IC50) is 274 nM at PTGER2 (EP2), 70 nM against EP2, 47 nM against EP4 and 255 nM against PTGER4 (EP4).

In the case of `CCOc1cc(-c2cc(NCCc3c(OCC)cc4ccccc4c3C)ncn2)ccc1C(=O)O` [Example 418, 2-Ethoxy-4-{6-[2-(3-ethoxy-1-methyl-naphthalen-2-yl)-ethylamino]-pyrimidin-4-yl}-benzoic acid], the IC50 is 10 nM at PTGER2 (EP2), 45 nM at EP2, 148 nM at EP4 (BT549 cells) and 54 nM against PTGER4 (EP4).

As for `CCOc1cc(-c2cc(NCCc3cc4ccoc4cc3OC)ncn2)ccc1OCC(=O)O` [Ex 112, (2-Ethoxy-4-{6-[2-(6-methoxy-benzofuran-5-yl)-ethylamino]-pyrimidin-4-yl}-phenoxy)-acetic acid], the IC50 was 40 nM at PTGER2 (EP2), 69 nM against EP2, 82 nM against EP4 and 127 nM on PTGER4 (EP4).

In the case of `CCOc1cc(-c2cc(NCCc3cc4c(cc3OC)OCCO4)ncn2)ccc1OC(C)C(=O)O` (stereo not drawn) [Ex 201], the IC50 on PTGER2 (EP2) was determined as 83 nM; at EP2, 133 nM; against EP4, 229 nM; against PTGER4 (EP4), 111 nM.

As to `C#Cc1cc2ccccc2cc1CCNc1cc(-c2ccc(OCC(=O)O)c(OCC)c2)ncn1` [Ex 103, (2-Ethoxy-4-{6-[2-(3-ethynyl-naphthalen-2-yl)-ethylamino]-pyrimidin-4-yl}-phenoxy)-acetic acid], the half-inhibitory concentration (IC50) turned out to be 51 nM at PTGER2 (EP2), 89 nM against EP2, 71 nM at EP4 and 18 nM against PTGER4 (EP4).

Take `CCOc1cc(-c2cc(NCCc3cc4ccsc4cc3C)ncn2)ccc1C(=O)O` [Ex 254, 2-Ethoxy-4-{6-[2-(6-methyl-benzo[b]thiophen-5-yl)-ethylamino]-pyrimidin-4-yl}-benzoic acid]: the IC50 on PTGER2 (EP2) is 45 nM; against EP2, 70 nM; at EP4, 379 nM; on PTGER4 (EP4), 864 nM.

In the case of `CCc1cc(-c2cc(NCCc3cc(F)c4sccc4c3)ncn2)sc1C(=O)O` [Example 455, 3-Ethyl-5-{6-[2-(7-fluoro-benzo[b]thiophen-5-yl)-ethylamino]-pyrimidin-4-yl}-thiophene-2-carboxylic acid], the IC50 at PTGER2 (EP2) is 271 nM; against EP2, 250 nM; against EP4 (BT549 cells) it was 38 nM; at PTGER4 (EP4), 18 nM.
